Data as given in patent publication US9879004B2, “Substituted acetylene derivatives and their use as positive allosteric modulators of mGluR4” (Merck Patent GmbH, priority 2013, dated 2018).

Target: T1, mGluR4 (HEK293T-hmGluR4 cells) (Homo sapiens, UniProt Q14833)
T1 construct: host or cells: HEK293T
Assay: HEK-293 mGluR4 cells cAMP assay with EC20 L-Glutamate (HTRF)
Type: cell-based
Settings: positive allosteric activity at EC20 L-Glutamate, 10 μM Forskolin, cAMP HTRF readout, read-out: hrmGluR4/HEK293T-hmGluR4 (EC50)
Procedure: HEK-293 mGluR4 cells cAMP assay with EC20 L-Glutamate
Using mGluR4 suspension cell format, 10 μM Forskolin (final conc.) used to induce the production of cAMP.
Test the positive allosteric activity of the compounds of the invention at EC20 (2.3 μM for mGluR4 and 4.3 μM for mGluR6) L-Glutamate,
cAMP dymanic2 kit is intended for the direct quantitative determination of cAMP and its principle is based on HTRF technology.
Cells: HEK293T mGluR4 cells from Multispan, cat# C1191a lot# C1191a-040910 Culture Media: DMEM+GlutaMAX1+10% dialyzed FBS, 100 mM Sodium Pyruvate, 1 ug/ml puromycin.
Glutamine Starvation Media: DMEM without GlutaMax for plating the cells (glutamine starvation overnight). DMEM high Glucose, without phenol red, glutamine, or sodium pyruvate+10% dialyzed FBS, 100 mM Sodium Pyruvate, 1 ug/ml puromycin, 10 mM Hepes.
Cell Preparation: split cells at 80%-90% confluence. The following day, rinse the cells with DMEM without GlutaMax and change to Glutamine Starvation Media. Incubate overnight.
Prepare compound plate: Perform compound serial dilution (uses Matrix 4341 plate), using the Bravo liquid handling platform protocol (compound serial dilution) which adds DMSO to columns 1-24 (except cols. 3 and 13). Serial dilute compounds located in columns 3 and 13 at a 1:3 ratio; 10 points (10 ul of 3 mM compound into 20 ul DMSO). Use the Bravo liquid handling platform to transfer 1 ul from the serial dilution plate into Matrix 4314 plate to create stamp plates.
Dilute 20 mM Forskolin (in DMSO) stock solution in HBSS buffer to make a 20 uM solution (forskolin buffer; 2× solution). To the forskolin buffer, add glutamate to a concentration of 8 uM (compound dilution buffer; 2×EC20 glutamate and forskolin).
Using a multidrop, add 50 ul/well of compound dilution buffer to columns 1-22 of the 2 ul compound stamp plate. Columns 23 and 24 receive forskolin buffer containing 400 uM glutamate (EC100 glutamate; 2× solution). Columns 1 and 2 receive compound dilution buffer containing EC20 glutamate, which is the basal control. Add a glutamate dose response to row P of compound plate. Prepare the dose response by serial diluting glutamate at a 1:3 ratio in forskolin buffer starting at 2 mM glutamate (2×). Dilute the glutamate 9 times and transfer to compound plate.
Harvest cells: Rinse cells with pre-warmed HBSS-10 mM HEPES (without Ca Mg) and dissociate the cells from the flask with versene. Centrifuge the cells, remove the supernatant and suspend in pre-warmed HBSS+10 mM Hepes. Count the cells and centrifuge. Remove the supernatant and suspend the cells in HBSS+Hepes (with Ca Mg) at a density of 400,000 cells/ml.
Dispense 5 ul from the diluted compound plate into Greiner low volume cell plate using the Bravo liquid handling platform. Using a Multidrop with the small tubing cassette, dispense 5 ul of cells (2000 cells/well) onto the compounds contained in the low volume plates. Incubate the cells at 37° C., 5% CO2 for 30 minutes in the incubator.
Prepare cAMP-d2 and anti-cAMP-Crytate according to the instructions for the two step assay (see Cisbio manual) and add 10 ul of the mixed reagent to each well of the assay plate using the Multidrop. Incubate at room temperature for 60 minutes and read on the Envision plate reader using the mGluR low volume cAMP HTRF 384 well protocol. The readout is the calculated fluorescence ratio ([…]*10000).

T1 sequence (Q14833 33-912): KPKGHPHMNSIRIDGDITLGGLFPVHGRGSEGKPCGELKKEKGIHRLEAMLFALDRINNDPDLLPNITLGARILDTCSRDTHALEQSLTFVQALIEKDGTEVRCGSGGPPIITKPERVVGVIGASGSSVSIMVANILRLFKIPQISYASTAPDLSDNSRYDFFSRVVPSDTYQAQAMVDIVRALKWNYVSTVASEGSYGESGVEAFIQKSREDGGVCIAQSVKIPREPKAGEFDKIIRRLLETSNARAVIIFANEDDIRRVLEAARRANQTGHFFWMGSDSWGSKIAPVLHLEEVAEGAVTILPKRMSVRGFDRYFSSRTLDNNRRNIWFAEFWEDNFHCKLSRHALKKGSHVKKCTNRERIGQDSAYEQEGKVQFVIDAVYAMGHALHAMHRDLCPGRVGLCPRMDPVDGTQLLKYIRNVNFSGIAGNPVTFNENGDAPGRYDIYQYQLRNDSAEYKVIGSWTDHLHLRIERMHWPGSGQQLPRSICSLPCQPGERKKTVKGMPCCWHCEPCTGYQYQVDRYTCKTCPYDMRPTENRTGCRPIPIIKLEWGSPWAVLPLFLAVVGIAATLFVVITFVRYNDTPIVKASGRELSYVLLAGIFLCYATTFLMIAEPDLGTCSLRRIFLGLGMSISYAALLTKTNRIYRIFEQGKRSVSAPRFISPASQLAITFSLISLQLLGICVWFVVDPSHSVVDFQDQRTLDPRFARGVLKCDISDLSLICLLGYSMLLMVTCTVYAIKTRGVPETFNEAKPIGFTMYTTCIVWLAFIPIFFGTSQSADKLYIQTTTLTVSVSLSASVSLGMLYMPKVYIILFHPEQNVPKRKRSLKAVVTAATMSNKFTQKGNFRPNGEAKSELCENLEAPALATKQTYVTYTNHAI

| SMILES | EC50 |
| --- | --- |
| Fc1ccccc1C#Cc1ccnc2[nH]ccc12 [Compound 8, 4-(2-Fluoro-phenylethynyl)-1H-pyrrolo[2,3-b]pyridine] | 1000 to 10000 nM |
| Fc1cccc(C#Cc2ccnc3ccccc23)c1 [Compound 2, 4-(3-Fluoro-phenylethynyl)-quinoline] | < 1000 nM |
| Fc1ccccc1C#Cc1ccnc2ccccc12 [Compound 7, 4-(2-Fluoro-phenylethynyl)-quinoline] | 1000 to 10000 nM |
| C(#Cc1ccnc2ccccc12)c1ccccc1 [Compound 1, 4-Phenylethynyl-quinoline] | < 1000 nM |
| C(#Cc1ccnc2ccccc12)c1cccs1 [Compound 6, 4-Thiophen-2-ylethynyl-quinoline] | 1000 to 10000 nM |
| Fc1ccc(C#Cc2ccnc3ccccc23)cc1F [Compound 5, 4-(3,4-Difluoro-phenylethynyl)-quinoline] | < 1000 nM |
| Clc1cccc(C#Cc2ccnc3ccccc23)c1 [Compound 9, 4-(3-Chloro-phenylethynyl)-quinoline] | 1000 to 10000 nM |
| C(#Cc1ccnc2ccccc12)c1ccsc1 [Compound 3, 4-Thiophen-3-ylethynyl-quinoline] | < 1000 nM |
| Fc1ccc(C#Cc2ccnc3ccccc23)cc1 [Compound 4, 4-(4-Fluoro-phenylethynyl)-quinoline] | < 1000 nM |
